This is an account of results in the Deep4Chem optical property database.

A short description of this data set: solvent given as SMILES.
Setting [1] is: in O=P(c1ccccc1)(c1ccccc1)c1ccc2oc3ccc(P(=O)(c4ccccc4)c4ccccc4)cc3c2c1.

The structures appear in SMILES notation.

Consider `CC(=O)[B-]1(C(C)=O)OC(c2ccccc2)=CC(c2ccccc2)=[O+]1`, for which the emission maximum by setting is: (in CC#N) 400 nm; (in ClC(Cl)(Cl)Cl) 402 nm.

For the setting “in ClC(Cl)Cl”, `CCCCCCCCCCCCOc1cc2c3c(ccc4c5c(NC6CCCCC6)cc6c7c(ccc(c1c34)c75)C(=O)N(C1CCCCC1)C6=O)C(=O)N(C1CCCCC1)C2=O` displayed an emission maximum of 722 nm.

With `CC1(C)c2ccccc2N(c2ccc3c(c2)C2(c4cc(N5c6ccccc6C(C)(C)c6ccccc65)ccc4-3)c3ccccc3S(=O)(=O)c3ccccc32)c2ccccc21`, the emission maximum (in Cc1ccccc1) is on record as 437 nm.

Where the note is “in ClCCl”, `F[B-]1(F)n2c(Cl)c(Cl)c(Br)c2C(Oc2ccccc2)=C2C(Br)=C(Cl)C(Cl)=[N+]21` came in with an emission maximum of 541 nm.

Regarding `O=C1c2cccc3c(NCc4ccccn4)c4ccccc4c(c23)C(=O)N1Cc1ccccn1`, the emission maximum (in C1CCOC1) turned out to be 609 nm; the emission maximum (in CCCCCC) worked out at 594 nm; the emission maximum (in CCO) is recorded as 615 nm; the emission maximum (in Cc1ccccc1) is reported as 606 nm; the emission maximum (in ClCCl) was determined as 611 nm.

The compound `CCCCCCCCCCCCOc1ccc(C2=C3C(=O)N(CC(OCC)OCC)C(c4ccc(OCCCCCCCCCCCC)c(OCCCCCCCCCCCC)c4)=C3C(=O)N2CC(OCC)OCC)cc1OCCCCCCCCCCCC` showed an emission maximum (in ClC(Cl)Cl) of 541 nm.

The compound `Cc1nc(-c2ccccc2O)n2c1CCCC2` came in with an emission maximum (in ClCCl) of 452 nm.

On to `C=Cc1ccc(OC)cc1`, for which the emission maximum turned out to be 322 nm (in C1CCCCC1) and 323 nm (in CC#N).

Where the note is “in Cc1ccccc1”, `c1ccc2c(c1)Sc1ccccc1N2c1ccc2c(c1)C1(c3ccccc3-c3ccccc31)c1cc(N3c4ccccc4Sc4ccccc43)ccc1-2` came in with an emission maximum of 498 nm.

As to `CCCCCCOc1ccc(-c2cnc(-c3nnc(-c4ccc(OCCCCCC)cc4)o3)o2)cc1`, the emission maximum is, setting by setting: (in C1CCCCC1) 370 nm; (in C1CCOC1) 386 nm; (in CC#N) 400 nm; (in CCO) 411 nm; (in CO) 419 nm; (in ClC(Cl)Cl) 390 nm.

`c1ccc(-c2ccc3c4ccc(-c5ccccc5)c5c(-c6ccccc6)ccc(c6cccc2c63)c54)cc1` yielded an emission maximum (in ClCCl) of 500 nm.

In the case of `Cc1ccc2c(c1)C1(c3ccccc3Oc3ccccc31)c1cc(C)ccc1N2c1ccc(-c2nc(-c3ccccc3)cc(-c3ccccc3)n2)cc1`, the emission maximum runs as follows: (in Cc1ccccc1) 451 nm; under setting [1], 452 nm.

As to `C(=C\c1cnccn1)/c1ccc(N(c2ccccc2)c2ccccc2)cc1`, the emission maximum was found to be 487 nm (in C1CCOC1); 535 nm (in CC#N); 433 nm (in CCCCCCC); 537 nm (in CS(C)=O); 543 nm (in ClCCl).

For the compound `CCCCCCN1C(=O)c2cccc3c(-c4ccc(-c5cc(-c6ccccc6)nn5-c5ccccc5)s4)ccc(c23)C1=O`, the emission maximum (in ClCCl) worked out at 517 nm.

The compound `Cc1ccc2c(c1)nc1c(=O)n(C)c(=O)nc-1n2C` gave an emission maximum (in CC#N) of 532 nm.

Turning to `O=S1(=O)c2ccccc2-c2cc(-c3c4ccccc4cc4ccccc34)ccc21`, the emission maximum by setting is: (in C1CCCCC1) 403.35 nm; (in CC#N) 514.77 nm; (in ClCCl) 472.82 nm.

As for `CCCCCCN(CCCCCC)c1ccc(C#Cc2ccc(C#N)cc2)cc1`, the emission maximum is reported as 530 nm (in CC#N), 514 nm (in CO) and 484 nm (in ClCCl).

`Cc1cc(C)c(-c2cc(-c3c(C)cc(C)cc3C)c3ccc4c(-c5c(C)cc(C)cc5C)cc(-c5c(C)cc(C)cc5C)c5ccc2c3c54)c(C)c1` gave an emission maximum (in ClCCl) of 411 nm.

For the setting “in Cc1ccccc1”, `Cc1cc(C)c(B(c2c(C)cc(C)cc2C)c2ccc3ccc4cccc5ccc2c3c45)c(C)c1` yielded an emission maximum of 423 nm.

For the setting “in ClCCl”, `CCCCCCC1(CCCCCC)c2ccccc2-c2ccc(-c3ccc(-c4cc(-c5ccccn5)nc(-c5ccccn5)c4)cc3)cc21` registered an emission maximum of 409 nm.

The compound `CCCCn1c(-c2ccc(-c3nnc(-c4ccc5ccccc5c4)o3)cc2)nc2c3ccccc3c3ccccc3c21` showed an emission maximum (in ClCCl) of 448 nm.

For `Cc1cc2c(o1)c(C)cc1ccc(=O)oc12`, the emission maximum runs as follows: (in C1CCCCC1) 360 nm; (in C1COCCO1) 380 nm; (in CC#N) 435 nm; (in CCO) 460 nm; (in OCC(F)(F)F) 485 nm.

`CCNc1cc2oc(=O)cc(C(F)(F)F)c2cc1C` gave an emission maximum (in CC#N) of 481 nm.

`c1cc(-c2c3ccccc3c(-c3ccc4ccccc4c3)c3ccccc23)cc(-n2c3ccccc3c3ccccc32)c1` displayed an emission maximum (in ClCCl) of 419 nm.

Take `CCOC(CN1C(=O)C2=C(c3ccc(OC)c(OC)c3)N(CC(OCC)OCC)C(=O)C2=C1c1ccc(OC)c(OC)c1)OCC`: under “in ClC(Cl)Cl”, the emission maximum is on record as 538 nm.

On to `O=C1c2ccccc2-c2c(-c3ccccc3)c(-c3ccccc3)c(-c3ccccc3)c3cccc1c23`, for which the emission maximum is, setting by setting: (in CC#N) 498 nm; (in CO) 521 nm.

Consider `COc1cccc(-n2c(-c3ccc(F)cc3)nc(C)c2C)c1`, for which the emission maximum (in C1COCCO1) came out at 369 nm; the emission maximum (in CC#N) is on record as 365.4 nm; the emission maximum (in CCCCCC) turned out to be 369 nm; the emission maximum (in CCCCO) is recorded as 370 nm; the emission maximum (in CCO) is reported as 371 nm; the emission maximum (in CCOC(C)=O) turned out to be 367 nm. The emission maximum by setting is: (in CO) 368 nm; (in ClC(Cl)Cl) 369 nm; (in ClCCl) 368 nm; (in c1ccccc1) 365 nm.

For the compound `Cc1ccc(C2=[N+]3C(=Nc4c5ccccc5c(-c5ccc(C)s5)n4[B-]3(F)F)c3ccccc32)s1`, the emission maximum (in ClCCl) is given as 841 nm.

In turn, `Cc1cn2cc(-c3ccc([N+](=O)[O-])cc3)[n-][n+]2c1` returned an emission maximum (in ClCCl) of 575 nm.

For the compound `CN(C)c1ccc(C2=Nc3sc4ccccc4[n+]3[B-](F)(F)O2)cc1`, the emission maximum was 469 nm (in C1CCOC1); 486 nm (in CC#N); 482 nm (in CC(C)=O); 450 nm (in Cc1ccccc1); 467 nm (in ClCCl).

For the setting “in ClCCl”, `C=CCN(CC=C)c1ccc(-c2cc(-c3ccc(N(CC=C)CC=C)cc3)cc(-c3ccc(N(CC=C)CC=C)cc3)c2)cc1` yielded an emission maximum of 397.56 nm.

With `CCN(CC)c1ccc(/C=N/C(C#N)=C(C#N)/N=C/c2ccc(N(CC)CC)cc2O)c(O)c1`, the emission maximum is, setting by setting: (in CC#N) 609 nm; (in CN(C)C=O) 618 nm; (in ClCCl) 612 nm.

Regarding `CC1(C)c2ccccc2N(c2ccc(-c3cc(C#N)c(C#N)cc3-c3ccc(N4c5ccccc5C(C)(C)c5ccccc54)cc3)cc2)c2ccccc21`, the emission maximum is, setting by setting: (in Cc1ccccc1) 532 nm; (in c1cc(-c2cccc(-n3c4ccccc4c4ccccc43)c2)cc(-n2c3ccccc3c3ccccc32)c1) 499 nm.

For the setting “in ClCCl”, `CC(C)(C)OC(=O)/C=C/C1=CC2=C(c3ccccc3)c3cccn3[B-](F)(F)[N+]2=C1` had an emission maximum of 575 nm.

As for `CN1c2ccccc2C(O)(c2ccccc2)c2cc([N+](=O)[O-])ccc21` (stereo unspecified), the emission maximum turned out to be 501.3 nm (in C1CCOC1); 557 nm (in CC#N); 536.2 nm (in CCO); 544.7 nm (in CO); 566.8 nm (in CS(C)=O); 480.7 nm (in Cc1ccccc1).

For the setting “in Cc1ccccc1”, `Cc1cc(-c2nc(-c3ccccc3)nc(-c3ccccc3)n2)ccc1N1c2ccccc2C2(c3ccccc3-c3ccccc32)c2ccccc21` returned an emission maximum of 481 nm.

As for `N#Cc1cccc2cc[nH]c12`, the emission maximum is, setting by setting: (in C1CCOC1) 368 nm; (in C1COCCO1) 367 nm; (in CC#N) 378 nm; (in CC(C)O) 380 nm; (in CCO) 382 nm; (in CO) 387 nm. Also, the emission maximum is given as 391 nm (in CS(C)=O), 400 nm (in O) and 391 nm (in OCC(F)(F)F).

As for `CNc1cccc2c1-c1ccccc1C2=O`, the emission maximum reads like this: (in C1CCCCC1) 536 nm; (in CC#N) 638 nm; (in CCO) 686 nm; (in c1ccccc1) 570 nm.

As for `Cc1ccccc1N1c2sc3ccccc3c2Sc2sc3ccccc3c21`, the emission maximum (in ClCCl) is recorded as 564 nm.

As to `Cc1ccc2c(c1)C(c1ccccc1)(c1ccccc1)c1cc(C)ccc1N2c1ccc2c(c1)N(c1ccccc1)c1ccccc1B2c1c(C(C)C)cc(C(C)C)cc1C(C)C`, the emission maximum stood at 449 nm (in Cc1ccccc1) and 465 nm under setting [1].

Regarding `CCOC(=O)c1ccccc1-c1c2ccc(=O)cc-2oc2cc(OC(=O)[C@H](CSCc3ccc(C)cc3)NC(=O)OC(C)(C)C)ccc12`, the emission maximum by setting is: (in C1CCOC1) 518 nm; (in CC#N) 521 nm; (in CCO) 516 nm; (in CS(C)=O) 549 nm.

For `CC(C)c1cccc(C(C)C)c1-n1c(=O)c2cc3nc(-c4ccccc4)c4cc5c(=O)n(-c6c(C(C)C)cccc6C(C)C)c(=O)c6cc7nc(-c8ccccc8)c8cc(c1=O)c2c1c3c4c(c65)c7c81`, the emission maximum (in ClC(Cl)Cl) was found to be 502 nm.

Regarding `Cc1ccc2c(c1)C(c1ccccc1)(c1ccccc1)c1cc(C)ccc1N2c1ccc2c(c1)Sc1ccccc1B2c1c(C(C)C)cc(C(C)C)cc1C(C)C`, the emission maximum by setting is: (in Cc1ccccc1) 493 nm; under setting [1], 497 nm.

Regarding `c1ccc(-c2c3c(c(-c4ccccc4)c4cc5ccccc5cc24)Cc2c(c(-c4ccccc4)c4cc5ccccc5cc4c2-c2ccccc2)C3)cc1`, the emission maximum reads like this: (in CC#N) 400 nm; (in CCCCCC) 396 nm; (in CO) 398 nm; (in Cc1ccccc1) 402 nm; (in ClCCl) 402 nm.

With `CCCCC(CC)COc1cc(OCC(CC)CCCC)c2c#cc3ccc4sc5ccc(c#cc6cc(c#cc7ccc8sc9ccc(c#cc1c2)cc9c8c7)c(C(CCCC)OCCC)cc6C(CCCC)OCCC)cc5c4c3` (stereo unspecified), the emission maximum (in ClCCl) is given as 377 nm.
